Source: US8802597B2, “Herbicidal pyrimidines” (E I du Pont de Nemours and Company, priority 2003, dated 2014)
Read-outs that look alike come from different tables or passages of the source.

Experiments:
Experiment in all cases: Test C pre/postemergence
Type in all cases: in vivo
[1] = tested on: Surinam grass (Brachiaria decumbens); details: Urochloa decumbens; for pest or weed control at 16 g/ha: 16 g ai/ha; for pest or weed control at 31 g/ha: 31 g ai/ha; for pest or weed control at 62 g/ha: 62 g ai/ha
Outline: (§1)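 Percent control is a visual rating (0 none, 100 complete) taken against untreated plants after 12 to 14 days of greenhouse growth. Applications were made preemergence to seeded pots and postemergence to plants at the 1- to 4-leaf stage, in a non-phytotoxic surfactant-containing solvent.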

[2] = tested on: cocklebur (Xanthium strumarium); details: Xanthium strumarium; for pest or weed control at 16 g/ha: 16 g ai/ha; for pest or weed control at 31 g/ha: 31 g ai/ha; for pest or weed control at 62 g/ha: 62 g ai/ha; for pest or weed control at 125 g/ha: 125 g ai/ha
Outline: as §1

[3] = tested on: common (oilseed) sunflower (Helianthus annuus); details: Helianthus annuus, pre-emergence, Preemergence, scale 0 to 100, 0 no effect, 100 complete control, read-out: Plant response rating, Sunflower
Outline: as §1

[4] = tested on: common ragweed (Ambrosia elatior); details: Ambrosia artemisiifolia; for pest or weed control at 16 g/ha: 16 g ai/ha; for pest or weed control at 31 g/ha: 31 g ai/ha; for pest or weed control at 62 g/ha: 62 g ai/ha
Outline: as §1

[5] = tested on: corn (Zea mays); details: Zea mays; for Corn plant response rating (crop injury, 0 = no effect, 100 = complete kill) at 16 g/ha: 16 g ai/ha; for Corn plant response rating (crop injury, 0 = no effect, 100 = complete kill) at 31 g/ha: 31 g ai/ha; for Corn plant response rating (crop injury, 0 = no effect, 100 = complete kill) at 62 g/ha: 62 g ai/ha; for Corn plant response rating (crop injury, 0 = no effect, 100 = complete kill) at 125 g/ha: 125 g ai/ha
Outline: as §1

[6] = tested on: crabgrass (Digitaria sanguinalis); details: Digitaria sanguinalis; for pest or weed control at 16 g/ha: 16 g ai/ha; for pest or weed control at 31 g/ha: 31 g ai/ha; for pest or weed control at 62 g/ha: 62 g ai/ha; for pest or weed control at 125 g/ha: 125 g ai/ha
Outline: as §1

[7] = tested on: goosegrass (Eleusine indica); details: Eleusine indica, post-emergence, Postemergence, read-out: Plant response rating (scale of 0 to 100), Goosegrass
Outline: as §1

[8] = post-emergence, Postemergence, read-out: Plant response rating (scale of 0 to 100), Surinam Grass
[9] = pre-emergence, Preemergence, scale 0 to 100, 0 no effect, 100 complete control, read-out: Plant response rating, Surinam Grass
[10] = post-emergence, Postemergence, read-out: Plant response rating (scale of 0 to 100), Cocklebur
[11] = pre-emergence, Preemergence, scale 0 to 100, 0 no effect, 100 complete control, read-out: Plant response rating, Cocklebur
[12] = post-emergence, Postemergence, read-out: Plant response rating (scale of 0 to 100), Ragweed
[13] = pre-emergence, Preemergence, scale 0 to 100, 0 no effect, 100 complete control, read-out: Plant response rating, Ragweed
[14] = post-emergence, Postemergence, read-out: Plant response rating (scale of 0 to 100), Corn
[15] = pre-emergence, Preemergence, scale 0 to 100, 0 no effect, 100 complete control, read-out: Plant response rating, Corn
[16] = post-emergence, Postemergence, read-out: Plant response rating (scale of 0 to 100), Crabgrass
[17] = pre-emergence, Preemergence, scale 0 to 100, 0 no effect, 100 complete control, read-out: Plant response rating, Crabgrass

## Nc1nc(-c2ccc(Cl)cc2)nc(C(=O)O)c1Cl [Compound 65, 6-amino-5-chloro-2-(4-chlorophenyl)-4-pyrimidinecarboxylic acid]
[1]; post-emergence, Postemergence, 125 g ai/ha, scale 0 to 100 (0 no effect, 100 complete control), read-out: Surinam Grass plant response rating
  pest or weed control at 125 g/ha: 80%
[1]; [8]
  pest or weed control at 16 g/ha: 60%
  pest or weed control at 31 g/ha: 80%
  pest or weed control at 62 g/ha: 80%
[1]; [9]
  pest or weed control at 16 g/ha: 0%
  pest or weed control at 31 g/ha: 40%
  pest or weed control at 62 g/ha: 80%
[2]; [10]
  pest or weed control at 16 g/ha: 90%
  pest or weed control at 31 g/ha: 100%
  pest or weed control at 62 g/ha: 100%
[2]; post-emergence, Postemergence, scale 0 to 100 (0 no effect, 100 complete control), read-out: Cocklebur plant response rating
  pest or weed control at 125 g/ha: 100%
[2]; [11]
  pest or weed control at 16 g/ha: 0%
  pest or weed control at 31 g/ha: 30%
  pest or weed control at 62 g/ha: 50%
[2]; pre-emergence, Preemergence, scale 0 to 100, read-out: Plant response rating, Cocklebur
  pest or weed control at 125 g/ha: 90%
[3]; 16 g ai/ha
  pest or weed control at 16 g/ha: 40%
[3]; 31 g ai/ha
  pest or weed control at 31 g/ha: 70%
[3]; 62 g ai/ha
  pest or weed control at 62 g/ha: 95%
[4]; [12]
  pest or weed control at 16 g/ha: 80%
  pest or weed control at 31 g/ha: 90%
  pest or weed control at 62 g/ha: 95%
[4]; post-emergence, Postemergence, 125 g ai/ha, scale 0 to 100 (0 no effect, 100 complete control), read-out: Ragweed plant response rating
  pest or weed control at 125 g/ha: 95%
[4]; [13]
  pest or weed control at 16 g/ha: 85%
  pest or weed control at 31 g/ha: 85%
  pest or weed control at 62 g/ha: 90%
[5]; [14]
  Corn plant response rating (crop injury, 0 = no effect, 100 = complete kill) at 16 g/ha: 5%
  Corn plant response rating (crop injury, 0 = no effect, 100 = complete kill) at 31 g/ha: 90%
  Corn plant response rating (crop injury, 0 = no effect, 100 = complete kill) at 62 g/ha: 90%
[5]; post-emergence, Postemergence, scale 0 to 100 (0 no effect, 100 complete control), read-out: Corn plant response rating
  Corn plant response rating (crop injury, 0 = no effect, 100 = complete kill) at 125 g/ha: 90%
[5]; [15]
  Corn plant response rating (crop injury, 0 = no effect, 100 = complete kill) at 16 g/ha: 0%
  Corn plant response rating (crop injury, 0 = no effect, 100 = complete kill) at 31 g/ha: 0%
  Corn plant response rating (crop injury, 0 = no effect, 100 = complete kill) at 62 g/ha: 0%
[5]; pre-emergence, Preemergence, scale 0 to 100, read-out: Plant response rating, Corn
  Corn plant response rating (crop injury, 0 = no effect, 100 = complete kill) at 125 g/ha: 30%
[6]; [16]
  pest or weed control at 16 g/ha: 80%
  pest or weed control at 31 g/ha: 80%
  pest or weed control at 62 g/ha: 90%
[6]; post-emergence, Postemergence, scale 0 to 100 (0 no effect, 100 complete control), read-out: Crabgrass plant response rating
  pest or weed control at 125 g/ha: 90%
[6]; [17]
  pest or weed control at 16 g/ha: 0%
  pest or weed control at 31 g/ha: 20%
  pest or weed control at 62 g/ha: 70%
[6]; pre-emergence, Preemergence, scale 0 to 100, read-out: Plant response rating, Crabgrass
  pest or weed control at 125 g/ha: 80%
[7]; 16 g ai/ha
  pest or weed control at 16 g/ha: 50%
[7]; 31 g ai/ha
  pest or weed control at 31 g/ha: 50%
